Laboratory results reported in patent publication US9573913B2, “Cathepsin cysteine protease inhibitors” (Merck Sharp & Dohme Corp., priority 2013, dated 2017).

Key:
[1] = biological target: T1, human cathepsin F (Homo sapiens, UniProt Q9UBX1); test: Cathepsin F assay (hCat F); type: biochemical; details: Z-Phe-Arg-AMC substrate, pH 5.5, 15 min preincubation; read-out: hCat F (IP (nM))
T1 sequence (Q9UBX1 271-484): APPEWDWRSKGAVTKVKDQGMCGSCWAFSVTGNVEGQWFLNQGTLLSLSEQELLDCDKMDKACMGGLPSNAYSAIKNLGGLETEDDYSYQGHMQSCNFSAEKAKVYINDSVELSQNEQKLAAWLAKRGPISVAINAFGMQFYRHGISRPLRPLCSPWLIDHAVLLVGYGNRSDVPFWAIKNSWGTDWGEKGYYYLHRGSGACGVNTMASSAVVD
Method in brief: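 AMC release from Z-Phe-Arg-AMC, added at 8 μM, was monitored fluorometrically (360/460 nm) for 20 min after 10 nM enzyme and compound had been preincubated 15 min at room temperature. Buffer: MES 50 mM pH 5.5, EDTA and DTT 2.5 mM each, 10% DMSO. Compound DMSO dilutions spanned 500–0.025 μM (3-fold). Dose-response fitting gave % inhibition.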

[2] = biological target: human cathepsin K (UniProt P43236); test: Cathepsin K Assay (hrbCat K); type: biochemical; details: Z-Leu-Arg-AMC substrate, pH 5.5, 15 min preincubation; read-out: hrbCat K (IP (nM))
Method in brief: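 Human cathepsin K (0.4 nM) was preincubated 15 min at room temperature with compound in 50 mM MES pH 5.5, 2.5 mM EDTA, 2.5 mM DTT and 10% DMSO. Inhibition was fitted to a dose-response model.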

Question: With `C[C@@H](C#N)NC(=O)[C@@H]1C[C@@H](F)CC[C@H]1c1nc(CF)sc1-c1ccc(N2CCS(=O)(=O)CC2)cc1` [Example 237, (1R,2R,5S)-N-((S)-1-cyanoethyl)-2-(5-(4-(1,1-dioxidothiomorpho-lino)phenyl)-2-(fluoromethyl)thia-zol-4-yl)-5-fluorocyclohexane-carboxamide] as the molecule, how does the IC50 [1] read?
Answer: 6830 nM

Question: What about the IC50 [2] of the same molecule?
Answer: 4.1 nM

Question: How did the IC50 [1] turn out when `N#CC1(NC(=O)[C@@H]2C[C@@H](F)CC[C@H]2c2nc(CF)sc2-c2ccc(N3CCS(=O)(=O)CC3)cc2)CC1` [Example 238, (1R,2R,5S)-N-(1-cyanocyclopropyl)-2-(5-(4-(1,1-dioxidothiomorpho-lino)phenyl)-2-(fluoromethyl)thia-zol-4-yl)-5-fluorocyclohexane-carboxamide] was run?
Answer: 3170 nM

Question: What about the IC50 [2] of the same molecule?
Answer: 3.5 nM

Question: What does the source list for `Cc1nc([C@@H]2CC[C@H](F)C[C@H]2C(=O)N[C@@H](C)C#N)c(-c2ccc(N3CCC(F)(F)CC3)cc2)s1` [Example 239, (1R,2R,5S)-N-((S)-1-cyanoethyl)-2-(5-(4-(4,4-difluoropiperidin-1-yl)phenyl)-2-methylthiazol-4-yl)-5-fluorocyclohexane-carboxamide]?
Answer: IC50 [1]: 5340 nM; IC50 [2]: 8.5 nM

Question: For `Cc1nc([C@@H]2CC[C@H](F)C[C@H]2C(=O)NC2(C#N)CC2)c(-c2ccc(N3CCC(F)(F)CC3)cc2)s1` [Example 240, (1R,2R,5S)-N-(1-cyanocyclopropyl)-2-(5-(4-(4,4-difluoropiperidin-1-yl)phenyl)-2-methylthiazol-4-yl)-5-fluorocyclohexane-carboxamide], which IC50 [1] is on record?
Answer: 7120 nM

Question: And the IC50 [2]?
Answer: 8 nM

Question: How did the IC50 [1] turn out when `Cc1nc([C@@H]2CC[C@H](F)C[C@H]2C(=O)N[C@@H](C)C#N)c(-c2ccc(N3CCC(C)(O)CC3)cc2)s1` [Example 241, (1R,2R,5S)-N-((S)-1-cyanoethyl)-5-fluoro-2-(5-(4-(4-hydroxy-4-methylpiperidin-1-yl)phenyl)-2-methylthiazol-4-yl)cyclohexane-carboxamide] was run?
Answer: ≥ 10000 nM

Question: And the IC50 [2]?
Answer: 34.9 nM

Question: Which results are given for `Cc1nc([C@@H]2CC[C@H](F)C[C@H]2C(=O)NC2(C#N)CC2)c(-c2ccc(N3CCC(C)(O)CC3)cc2)s1` [Example 242, (1R,2R,5S)-N-(1-cyanocyclopropyl)-5-fluoro-2-(5-(4-(4-hydroxy-4-methylpiperidin-1-yl)phenyl)-2-methylthiazol-4-yl)cyclohexane-carboxamide]?
Answer: IC50 [1]: ≥ 10000 nM; IC50 [2]: 26.3 nM

Question: Which results are given for `Cc1nc([C@@H]2CC[C@H](F)C[C@H]2C(=O)NC2(C#N)CC2)c(-c2ccc(N3CCC(S(C)(=O)=O)CC3)cc2)s1` [Example 243, (1R,2R,5S)-N-(1-cyanocyclopropyl)-5-fluoro-2-(2-methyl-5-(4-(4-(methylsulfonyl)piperidin-1-yl)phenyl)thiazol-4-yl)cyclohexane-carboxamide]?
Answer: IC50 [1]: 8430 nM; IC50 [2]: 5.3 nM

Question: Which results are given for `Cc1nc([C@@H]2CC[C@H](F)C[C@H]2C(=O)N[C@@H](C)C#N)c(-c2ccc(N3CCC(S(C)(=O)=O)CC3)cc2)s1` [Example 244, (1R,2R,5S)-N-((S)-1-cyanoethyl)-5-fluoro-2-(2-methyl-5-(4-(4-(methylsulfonyl)piperidin-1-yl)phenyl)thiazol-4-yl)cyclohexane-carboxamide]?
Answer: IC50 [1]: 7740 nM; IC50 [2]: 4.7 nM

Question: For `Cc1nc([C@H]2CCCC[C@@H]2C(=O)NCC#N)c(-c2ccc(C(=O)N3CCOCC3)cc2)s1` [Example 248, (1S,2S)-N-(cyanomethyl)-2-(2-methyl-5-(4-(morpholine-4-carbonyl)phenyl)thiazol-4-yl)cyclohexanecarboxamide], which IC50 [1] is on record?
Answer: ≥ 10000 nM

Question: And the IC50 [2]?
Answer: 6600 nM

Question: For `N#CC1(NC(=O)[C@@H]2C[C@@H](F)CC[C@H]2c2nc(C(F)F)sc2-c2ccc(N3CCS(=O)(=O)CC3)cc2)CC1` [Example 2219, (1R,2R,5S)-N-(1-cyanocyclopropyl)-2-(2-(difluoromethyl)-5-(4-(1,1-dioxidothiomorpho-lino)phenyl)thiazol-4-yl)-5-fluorocyclohexane-carboxamide], which IC50 [1] is on record?
Answer: 4860 nM

Question: And the IC50 [2]?
Answer: 1.8 nM
